≈ marks a conversion by molar mass, not a printed value. Where two headings read alike, the source gives them in different places.
Legend:
Assay type in all cases: cell-based
[1] = tested on: Haemophilus influenzae 1218; experiment: MIC, microtiter broth dilution (NCCLS M100-S14), H. influenzae 1218 (susceptible)
Summary of the method: (§1)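 MIC read-out follows NCCLS M100-S14 interpretation of microtiter tray broth dilution. Test agents are prepared as DMSO stocks at 40 mg/ml.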

[2] = tested on: Streptococcus pneumoniae 1016; experiment: MIC, microtiter broth dilution (NCCLS M100-S14), S. pneumoniae 1016 (susceptible)
Summary of the method: as §1

[3] = tested on: Streptococcus pyogenes 1079; experiment: MIC, microtiter broth dilution (NCCLS M100-S14), S. pyogenes 1079 (ermB)
Summary of the method: as §1

[4] = tested on: Streptococcus pneumoniae 1095; conditions: microtiter broth dilution
Summary of the method: as §1

[5] = tested on: Streptococcus pneumoniae 1175; conditions: microtiter broth dilution
Summary of the method: as §1

[6] = H. influenzae 1218 (susceptible)
[7] = S. pneumoniae 1016 (susceptible)

| SMILES | MIC H. influenzae 1218 ([1]; Haemophilus influenzae 1218) | MIC S. pneumo. 1016 ([2]; Streptococcus pneumoniae 1016) | MIC S. pyogenes 1079 ([3]; Streptococcus pyogenes 1079) | MIC S. pneumo. 1095 ([4]; Streptococcus pneumoniae 1095) | MIC S. pneumo. 1175 ([5]; Streptococcus pneumoniae 1175) | MIC H. influenzae 1218 [1, 6] | MIC S. pneumo. 1016 [2, 7] | MIC S. pyogenes 1079 ([3]; S. pyogenes 1079 (ermB)) | MIC S. pneumo. 1095 ([4]; S. pneumoniae 1095 (ermB)) | MIC S. pneumo. 1175 ([5]; S. pneumoniae 1175 (mefA)) |
| --- | --- | --- | --- | --- | --- | --- | --- | --- | --- | --- |
| CCC1OC(=O)C(C)C(=O)C(C)C(OC2OC(C)CC(N(C)C)C2O)C(C)(OC)CC(C)C(=O)C(C)C2N(C3CN(S(=O)(=O)c4ccc(-c5nnn(C)n5)cc4)C3)C(=O)OC12C (stereo not drawn) [Example 3.51, 3-descladinosyl-11,12-dideoxy-6-O-methyl-3-oxo-12,11-(oxycarbonyl-(1-(4-(2-methyl-2H-tetrazol-5-yl)benzenesulfonyl)-azetidin-3-yl)-imino)-erythromycin A] | 2 µg/mL (≈ 2.25 µM) | <0.06 µg/mL | 0.5 µg/mL (≈ 0.562 µM) | <0.06 µg/mL | <0.06 µg/mL |  |  |  |  |  |
| CCC1OC(=O)C(C)C(=O)C(C)C(OC2OC(C)CC(N(C)C)C2O)C(C)(OC)CC(C)C(=O)C(C)C2N(C3CN(S(=O)(=O)c4ccc(C#N)nc4)C3)C(=O)OC12C (stereo not drawn) [Example 3.48, 6-cyanopyridine-3-sulfonyl] | 0.5 µg/mL (≈ 0.6 µM) | <0.06 µg/mL | >64.00 µg/mL | 1 µg/mL (≈ 1.2 µM) | <0.06 µg/mL |  |  |  |  |  |
| CCC1OC(=O)C(C)C(=O)C(C)C(OC2OC(C)CC(N(C)C)C2O)C(C)(OC)CC(C)C(=O)C(C)C2N(C3CN(C(=O)c4ccnc(-n5cnnn5)c4)C3)C(=O)OC12C (stereo not drawn) [Example 2.19, 2-(1H-tetrazol-1-yl)pyridine-4-carboxyl] | 32 µg/mL (≈ 38.1 µM) | <0.06 µg/mL | >64.00 µg/mL | >64.00 µg/mL | 0.5 µg/mL (≈ 0.595 µM) |  |  |  |  |  |
| CCC1OC(=O)C(C)C(=O)C(C)C(OC2OC(C)CC(N(C)C)C2O)C(C)(OC)CC(C)C(=O)C(C)C2N(CC3CN(C(=O)c4ccnc5ccccc45)C3)C(=O)OC12C.O=CO (stereo not drawn) [4.37] | 0.5 µg/mL | <0.06 µg/mL | >64.00 µg/mL | 0.25 µg/mL | <0.06 µg/mL |  |  |  |  |  |
| CCC1OC(=O)C(C)C(=O)C(C)C(OC2OC(C)CC(N(C)C)C2O)C(C)(OC)CC(C)C(=O)C(C)C2N(CC3CCCN3C(=O)c3cc4cccnc4[nH]3)C(=O)OC12C (stereo not drawn) [10.55] |  |  |  |  |  | 1 µg/mL (≈ 1.19 µM) | <0.06 µg/mL | 32 µg/mL (≈ 38.1 µM) | <0.06 µg/mL | <0.06 µg/mL |
| CCC1OC(=O)C(C)C(=O)C(C)C(OC2OC(C)CC(N(C)C)C2O)C(C)(OC)CC(C)C(=O)C(C)C2N(CC3CN(C(=O)c4ccnc5nc[nH]c45)C3)C(=O)OC12C.O=CO (stereo not drawn) [4.45] | 16 µg/mL | <0.06 µg/mL | >64.00 µg/mL | >64.00 µg/mL | 4 µg/mL |  |  |  |  |  |
| CCC1OC(=O)C(C)C(=O)C(C)C(OC2OC(C)CC(N(C)C)C2O)C(C)(OC)CC(C)C(=O)C(C)C2N(C3CN(C(=O)Nc4ccc5ncccc5c4)C3)C(=O)OC12C (stereo not drawn) [Example 2.05, N-(quinolin-6-yl) aminocarbonyl] | 0.5 µg/mL (≈ 0.597 µM) | <0.06 µg/mL | 64 µg/mL (≈ 76.4 µM) | 16 µg/mL (≈ 19.1 µM) | <0.06 µg/mL |  |  |  |  |  |
| CC[C@H]1OC(=O)[C@H](C)C(=O)[C@H](C)[C@@H](O[C@@H]2O[C@H](C)C[C@H](N(C)C)[C@H]2O)[C@](C)(OC)C[C@@H](C)C(=O)[C@H](C)[C@H]2N(CC3(O)CN(C(=O)c4ccc5cccnc5n4)C3)C(=O)O[C@]12C [7.17] |  |  |  |  |  | 1 µg/mL (≈ 1.17 µM) | <0.06 µg/mL | >64.00 µg/mL | <0.06 µg/mL | 0.5 µg/mL (≈ 0.585 µM) |
| CCC1OC(=O)C(C)C(=O)C(C)C(OC2OC(C)CC(N(C)C)C2O)C(C)(OC)CC(C)C(=O)C(C)C2N(CC3CCN(Cc4cccc5nccnc45)CC3)C(=O)OC12C (stereo not drawn) [15.01] |  |  |  |  |  | 32 µg/mL (≈ 37.6 µM) | <0.06 µg/mL | >64.00 µg/mL | >64.00 µg/mL | 0.25 µg/mL (≈ 0.293 µM) |
| CC[C@H]1OC(=O)[C@H](C)[C@@H](OC(=O)N2CCCC2)[C@H](C)[C@@H](O[C@@H]2O[C@H](C)C[C@H](N(C)C)[C@H]2O)[C@](C)(OC)C[C@@H](C)C(=O)[C@H](C)[C@H]2N(CC3CN(C(=O)c4ccnc5ccccc45)C3)C(=O)O[C@]12C [Example 5.01, 2-R^2: quinoline-4-carboxyl; R^#: pyrrolidin-1-yl] | 2 µg/mL (≈ 2.14 µM) | <0.06 µg/mL | 64 µg/mL (≈ 68.4 µM) | 0.5 µg/mL (≈ 0.534 µM) | <0.06 µg/mL |  |  |  |  |  |
| CCC1OC(=O)C(C)C(=O)C(C)C(OC2OC(C)CC(N(C)C)C2O)C(C)(OC)CC(C)C(=O)C(C)C2N(CC3CCCN3C(=O)c3cccc4cccnc34)C(=O)OC12C (stereo not drawn) [12.10] |  |  |  |  |  | 8 µg/mL (≈ 9.4 µM) | <0.06 µg/mL | >64.00 µg/mL | 0.5 µg/mL (≈ 0.588 µM) | 2 µg/mL (≈ 2.35 µM) |
| CCC1OC(=O)C(C)C(=O)C(C)C(OC2OC(C)CC(N(C)C)C2O)C(C)(OC)CC(C)C(=O)C(C)C2N(CC3CN(Cc4cccc5cccnc45)C3)C(=O)OC12C.O=CO (stereo not drawn) [4.36] | <0.06 µg/mL | <0.06 µg/mL | >64.00 µg/mL | 0.25 µg/mL | <0.06 µg/mL |  |  |  |  |  |
| CCC1OC(=O)C(C)C(=O)C(C)C(OC2OC(C)CC(N(C)C)C2O)C(C)(OC)CC(C)C(=O)C(C)C2N(C3CN(S(=O)(=O)c4ccc(C#N)cc4)C3)C(=O)OC12C (stereo not drawn) [Example 3.11, 3-descladinosyl-11,12-dideoxy-6-O-methyl-3-oxo-12,11-(oxycarbonyl-(1-(4-cyanobenzenesulfonyl)-azetidin-3-yl)-imino)-erythromycin A] | 0.25 µg/mL (≈ 0.3 µM) | <0.06 µg/mL | 8 µg/mL (≈ 9.6 µM) | <0.06 µg/mL | 0.5 µg/mL (≈ 0.6 µM) |  |  |  |  |  |
| CCC1OC(=O)C(C)C(=O)C(C)C(OC2OC(C)CC(N(C)C)C2O)C(C)(OC)CC(C)C(=O)C(C)C2N(C3CN(Cc4ccc(C#N)c5ncccc45)C3)C(=O)OC12C (stereo not drawn) [Example 1.96, 3-descladinosyl-11,12-dideoxy-6-O-methyl-3-oxo-12,11-(oxycarbonyl-(1-(quinoline-8-carbonitrile-5-methyl)-azetidin-3-yl)-imino)-erythromycin A] | 1 µg/mL (≈ 1.2 µM) | <0.063 µg/mL | 1 µg/mL (≈ 1.2 µM) | <0.063 µg/mL | <0.063 µg/mL |  |  |  |  |  |
| CC[C@H]1OC(=O)[C@H](C)[C@@H](OC(=O)N2CCCC2)[C@H](C)[C@@H](O[C@@H]2O[C@H](C)C[C@H](N(C)C)[C@H]2O)[C@](C)(OC)C[C@@H](C)C(=O)[C@H](C)[C@H]2N(CC3CN(C(=O)c4cccc5cccnc45)C3)C(=O)O[C@]12C [Example 5.07, 2-R^2: quinoline-8-carboxyl; R^#: pyrrolidin-1-yl] | 4 µg/mL (≈ 4.27 µM) | <0.06 µg/mL | 16 µg/mL (≈ 17.1 µM) | 0.25 µg/mL (≈ 0.267 µM) | <0.06 µg/mL |  |  |  |  |  |

Reference: patent publication US7462600B2, “Macrolides” (Pfizer Inc, priority 2004, dated 2008)
